Test results as given in patent US20240024403A1, “Compositions and Methods for Managing Weight” (Unigen, Inc., priority 2012, published 2024).
Where two headings read alike, the source gives them in different places.

How the values were obtained:
Rice α-glucosidase = assay: Rice α-Glucosidase inhibition assay; assay type: biochemical; settings: 100 μg/ml
Method: Inhibition of rice α-glucosidase activity by each of the purified Kuwanon G and Albanin G compounds was measured as follows. […] The reaction was initiated with addition of 2 mM p-nitrophenyl a-D-glucopyanoside, incubated for another 90 minute at 70° C., and then terminated by adding of 1 M sodium carbonate. The end-product p-nitrophenol was measured by spectrophotometer.

human CB1 receptor [1] = molecular target: T1, human CB1 receptor (Homo sapiens (Human), UniProt P21554); assay: CB1 receptor binding assay ([3H] SR141716A); settings: for inhibition at 20 µg/mL: read-out: % Inhibition CB1-Binding; for CB1 selectivity over CB2: from CB1 and CB2 IC50
Method: Cannabinoid receptor binding assays were used as a primary screening method to identify CB1 antagonist compounds. […] Briefly, human cannabinoid receptor protein bound to Chem-1 membrane was used in modified HEPES (pH 7.4) buffer. A 10 microgram (μg) aliquot of Chem-1 membrane, radioactively labeled [^3H] […] After incubation, the membranes were filtered and washed four times and then the filters were counted to determine amount of [^3H]

human CB1 receptor [2] = molecular target: T1, human CB1 receptor; assay: CB1 Antagonist Effect GPCR Functional Assay (cAMP); assay type: cell-based; settings: for inhibition at 100 µM: read-out: CB1 Antagonist Inhibition
Method: (§1) In vitro efficacy and CB1 binding specificity of compounds isolated from Morus alba and Milicia excelsa were tested in the human CB1 receptor binding assay, and the agonist or antagonist function of the compounds was determined by measuring the effect on cAMP or agonist-induced cAMP modulation.
(§2) Following 10 min incubation at 37° C., the cells are lysed and the fluorescence acceptor (D2-labeled cAMP) and fluorescence donor (anti-cAMP antibody labeled with europium cryptate) are added. After 60 min at room temperature, the fluorescence transfer is measured at λex=337 nm and λem=620 nm and 665 nm using a microplate reader (Rubystar, BMG). The cAMP concentration is determined by dividing the signal measured at 665 nm by that measured at 620 nm (ratio).

[3] = molecular target: human cannabinoid CB2 receptor protein (Homo sapiens (Human), UniProt P34972); assay: CB2 receptor-ligand binding assay ([3H] WIN-55,212-2)
Method: Briefly, human cannabinoid CB2 receptor protein expressed in CHO-K1 cells were used in modified HEPES buffer (pH 7.0). A 30 μg aliquot of CB2-membrane was mixed with tritium labeled nonspecific CB1 agonist [3H] WIN-55,212-2 (2.4 nM) and test samples of Kuwanon G and Albanin G compounds, or just the nonspecific ligand R (+)-WIN-55,212-2 (10 μM) (positive control) were incubated in incubation buffer (20 mM HEPES (pH 7.0), 0.5 mg/ml BSA) for 90 minutes at 37° C. After incubation, the membranes were filtered and washed; the filters were then counted to determine the amount of radiolabeled [^3H] WIN-55,212-2 that was specifically bound to the CB2-membrane.

3T3-L1 adipocytes [4] = assay: Lipolysis (free glycerol released) in mature 3T3-L1 adipocytes; assay type: cell-based, Mouse; settings: 10 μM
Method: Isoproterenol (10 μM) was used as a positive control. The conditioned medium was recovered and free glycerol released was assayed by using a lipolysis assay kit (Sigma-Aldrich Inc., USA) following the manufacturer's instructions.

human CB1 receptor [5] = molecular target: T1, human CB1 receptor; assay: CB1 Agonist Effect GPCR Functional Assay (cAMP); assay type: cell-based
Method: as §1
as §2, with “Following a” for “Following”, “10 minute” for “10 min”, “cryptate) were” for “cryptate) are”

3T3-L1 adipocytes [6] = assay: Lipid accumulation in 3T3-L1 adipocytes (Oil-Red O); assay type: cell-based, Mouse; settings: 10 ng/ml
Method: Briefly, 3T3 L1cells (American Type Culture Collection) were cultured in Dulbecco's modified Eagle's medium (DMEM) (GIBCO) containing 10% bovine calf serum until confluent. Two days post-confluence (DO), cells were stimulated to differentiate with DMEM containing 10% fetal bovine serum (FBS), 5 μg/ml insulin, 0.5 mM 3-isobutyl-1-methylxanthine (IBMX) and 1 μM dexamethasone for two days (D2).
Differentiated cells were then maintained in 10% FBS/DMEM medium with 5 μg/ml insulin for another two days (D4), followed by culturing with 10% FBS/DMEM medium for four days (D8).
To examine lipid accumulation, four different concentrations of Composition 3 (40, 80, 120 and 160 ug/ml) were tested with medium from Days 0 to 8 of adipogenesis. The culture medium was replaced every two days, and the cells were stained with Oil-Red O on Day 8.

3T3-L1 cells = assay: Intracellular triglyceride accumulation in differentiating 3T3-L1 cells; assay type: cell-based, Mouse; settings: 10 ng/ml; 8 days differentiation
Method: The cells were washed with PBS, scraped with homogenizing solution, residual cell lysate was centrifuged at 3,000 g for 5 minutes to remove fat layers, and the supernatants were assayed for triglyceride levels.

T1 sequence (P21554 whole entry): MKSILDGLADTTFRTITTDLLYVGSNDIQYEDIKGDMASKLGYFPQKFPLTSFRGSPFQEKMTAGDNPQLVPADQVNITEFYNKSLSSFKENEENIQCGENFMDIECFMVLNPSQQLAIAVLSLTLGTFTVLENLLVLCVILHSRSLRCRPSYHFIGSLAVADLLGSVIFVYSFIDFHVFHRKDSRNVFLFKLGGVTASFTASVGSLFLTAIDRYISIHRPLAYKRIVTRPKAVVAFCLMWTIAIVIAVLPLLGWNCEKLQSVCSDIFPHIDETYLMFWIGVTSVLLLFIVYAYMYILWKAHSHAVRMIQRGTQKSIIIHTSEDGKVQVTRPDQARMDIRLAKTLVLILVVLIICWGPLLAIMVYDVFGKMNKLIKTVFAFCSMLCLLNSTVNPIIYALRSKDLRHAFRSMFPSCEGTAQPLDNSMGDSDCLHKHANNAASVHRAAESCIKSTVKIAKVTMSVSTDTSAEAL
Sequence of human cannabinoid CB2 receptor protein (P34972 whole entry): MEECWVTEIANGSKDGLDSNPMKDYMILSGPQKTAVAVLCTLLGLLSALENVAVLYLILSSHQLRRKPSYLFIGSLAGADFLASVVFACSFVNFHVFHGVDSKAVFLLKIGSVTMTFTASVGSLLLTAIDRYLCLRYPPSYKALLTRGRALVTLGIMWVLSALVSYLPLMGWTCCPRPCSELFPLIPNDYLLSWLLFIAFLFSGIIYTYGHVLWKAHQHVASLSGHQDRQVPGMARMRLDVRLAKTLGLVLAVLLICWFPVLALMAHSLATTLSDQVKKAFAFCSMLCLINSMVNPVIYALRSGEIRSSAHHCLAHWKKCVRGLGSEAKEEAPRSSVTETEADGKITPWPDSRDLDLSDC
Method for DPPH anti-oxidation test: The DPPH radical has a violet color in solution, but changes to light yellow or colorless when reduced to DPPH-H (2,2-diphenyl-1-picrylhydrazin) after reaction with free radicals. The color change can be followed spectrophotometrically at 517 nm to determine the anti-oxidative potential of a composition. Briefly, a 0.2 mM solution of DPPH in DMSO was mixed with each test sample at concentrations of 20, 40, 80 and 160 μg/ml. Ascorbic acid was used as a positive control. After a 30 minute incubation in the dark, the color change (i.e., decrease in absorbance) was measured at 517 nm in a spectrophotometer.

CC(C)=CCc1c(O)ccc(C(=O)C2C(c3c(O)cc(O)c4c(=O)c(CC=C(C)C)c(-c5ccc(O)cc5O)oc34)C=C(C)CC2c2ccc(O)cc2O)c1O (centres unmarked) [Albanin G]
% Inhibition Rice α-glucosidase (Rice α-glucosidase): 66%
IC50 (human CB1 receptor [1]): 0.1 µM
inhibition at 20 µg/mL (human CB1 receptor [1]; 20 μg/ml): 96%
CB1 selectivity over CB2 (human CB1 receptor [1]): CB1 selective inhibitors
CB1 receptor functional behavior (antagonist) (human CB1 receptor [2]): modest antagonist-like activity
inhibition at 100 µM (human CB1 receptor [2]; at 100 μM): 17%
IC50 [3]: 6.6 µM

O=C1O[C@H]([C@@H](O)CO)C(O)=C1O [Ascorbic acid]
DPPH Inhibition (%) (DPPH anti-oxidation test; 20 μg/ml): 50.8 ± 0.83%
DPPH Inhibition (%) (DPPH anti-oxidation test; 40 μg/ml): 53.6 ± 1.72%
DPPH Inhibition (%) (DPPH anti-oxidation test; 80 μg/ml): 64.2 ± 0.86%
DPPH Inhibition (%) (DPPH anti-oxidation test; 160 μg/ml): 76.6 ± 0.30%

CC(C)NCC(O)c1ccc(O)c(O)c1 (centres unmarked) [Isoproterenol]
Lipolysis, % of Control (3T3-L1 adipocytes [4]; 24 hrs): 464.2 % of Control
Lipolysis, % of Control (3T3-L1 adipocytes [4]; 48 hrs): 525.0 % of Control

CC(C)=CCc1c(-c2ccc(O)cc2O)oc2c(C3C=C(C)CC(c4ccc(O)cc4O)C3C(=O)c3ccc(O)cc3O)c(O)cc(O)c2c1=O (centres unmarked) [Kuwanon G]
CB1 receptor functional behavior (agonist) (human CB1 receptor [5]): agonist-like behavior instead of antagonist
EC50 (human CB1 receptor [5]): 85 µM
% Inhibition Rice α-glucosidase (Rice α-glucosidase): −22%
IC50 (human CB1 receptor [1]): 10.1 µM
% Inhibition CB1-Binding (human CB1 receptor [1]; 20 μg/ml): 92%
CB1 selectivity over CB2 (human CB1 receptor [1]): CB1 selective inhibitors
CB1 Antagonist Inhibition (human CB1 receptor [2]; at 100 μM): −1%
IC50 [3]: 28.9 µM

CC(C)=CCC12Oc3c(c(O)cc(O)c3C3C=C(C)CC(c4ccc(O)cc4O)C3C(=O)c3ccc(O)cc3O)C(=O)C1(O)Oc1cc(O)ccc12 (centres unmarked) [Sanggenon, Sanggenon C/D/]
CB1 receptor functional behavior (agonist) (human CB1 receptor [5]): agonist-like behavior instead of antagonist
EC50 (human CB1 receptor [5]): 31 µM
IC50 (human CB1 receptor [1]): 3.5 µM
CB1 selectivity over CB2 (human CB1 receptor [1]): CB1 selectivity over the CB2 receptor protein
inhibition at 20 µg/mL (human CB1 receptor [1]): 96%
inhibition at 100 µM (human CB1 receptor [2]): -14%
IC50 [3]: 24 µM

TNF-α
Inhibition (%) of lipid accumulation (3T3-L1 adipocytes [6]; Table 159, Oil-Red O Day 8): 61.0%
Inhibition (%) of lipid accumulation (3T3-L1 adipocytes [6]; Table 160): 68.9%
Inhibition (%) of lipid accumulation (3T3-L1 adipocytes [6]; Table 161): 74.1 ± 6.06%
Inhibition (%) of intracellular triglyceride accumulation (3T3-L1 cells): 19.4%
